Assay results reported in US10364263B2, “Cyclic phosphates and cyclic phosphoramidates for the treatment of neurologic disorders” (Retrophin, Inc., priority 2015, dated 2019).
Read-outs that look alike come from different tables or passages of the source.

Tests used:
[1] = Stability in human hepatocytes; assay type: in vitro ADME; conditions: for half-life at 5 µM: t1/2, Human Hepatocytes; for half-life: 5 μM, 1 million cells/ml, 37° C., human hepatocytes
Protocol: (§1) Stability in hepatocytes for select compounds disclosed in the application was evaluated in two species (mouse and human) according to the following procedure. Compounds and positive control samples were dissolved in 100% DMSO at 5 mM. Cryopreserved hepatocytes were thawed and resuspended in Hepatocyte Basal Medium (HBM-Lonza CC-3199) supplemented with CC-4182 (complete hepatocyte culture medium). Test compounds were diluted into cell suspension (1 million cells/ml) from the stock solutions to have a test compound concentration of 5 μM (0.1% DMSO). Incubation was performed in 24-well plates, at 37° C. in a DUBNOFF water bath, under low shaking. Each compound was tested at 6 time points, in duplicates (0, 15, 30, 60, 120 and 240 min). At each time point, an aliquot of 120 μl was taken and transferred to a 96-well deep plate. The reaction was stopped with the addition of one volume of 100% acetonitrile plus 0.1% formic acid and the appropriate internal standard. Then samples were centrifuged at 1100×g for 30 min at +4° C. and supernatants were transferred to a new 96-deepwell plate. Samples were evaporated under N2 and reconstituted in H2O/ACN 0.1% Formic Acid (98:2). Analysis was performed without a calibration curve (Acquity UPLC-Waters; Sciex API4000). Time 0 was obtained adding acetonitrile before addition of the test compound. […] The half-life (t1/2) expressed in hours is derived using Equation 1 as shown in Example 64.

[2] = test system: PANK2 silenced human neuroblastoma IMR32 cells (PANK2−/−); assay: Coenzyme A assay in PANK2 silenced cells (LC-MS quantification of free CoA); assay type: cell-based; conditions: compound added twice (24 h + 24 h), relative to 0.1% DMSO controls
In short: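 PANK2 shRNA-silenced IMR32 neuroblastoma cells were treated with compound (0.1% DMSO) for 24 h, then re-dosed with fresh compound for a further 24 h at 37 °C. TFA extracts of 1×10^6 cells were assayed for free CoA by LC-MS/MS (MRM 768.1→261.6/136.1). Results are given as fold change versus DMSO controls.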

[3] = Stability in mouse hepatocytes; assay type: in vitro ADME
Protocol: as §1

[4] = Stability in human plasma; assay type: in vitro ADME; conditions: 37° C.
In short: (§2)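 Test compound at 3 μM (0.1% DMSO) was incubated in mouse or human plasma at 37 °C and sampled in duplicate at 0, 10, 20, 30, 40 and 60 min. Reactions were stopped with acetonitrile/formic acid containing internal standard. Remaining parent was measured by UPLC-MS/MS without a calibration curve.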

[5] = Stability in mouse plasma; assay type: in vitro ADME
In short: as §2

[6] = t1/2, Mouse Hepatocytes, Diastereoisomer A
[7] = human, plasma, Diastereoisomer A (upfield shift in 31P NMR), read-out: t1/2, Human Plasma, Diastereoisomer A (converted)
[8] = human, plasma, Diastereoisomer B, read-out: t1/2, Human Plasma, Diastereoisomer B (converted)
[9] = t1/2, Mouse Hepatocytes, Diastereoisomer B
[10] = Diastereoisomer A (upfield shift in 31P NMR), read-out: t1/2, Human Plasma, Diastereoisomer A (converted)
[11] = Diastereoisomer A (upfield shift in 31P NMR), 3 μM, 37° C., mouse plasma, read-out: t1/2, Mouse Plasma, Diastereoisomer A
[12] = Diastereoisomer A (upfield shift in 31P NMR), read-out: t1/2, Human Hepatocytes, Diastereoisomer A (converted)
[13] = Diastereoisomer A (upfield shift in 31P NMR), 5 μM, 1 million cells/ml, 37° C., mouse hepatocytes, read-out: t1/2, Mouse Hepatocytes, Diastereoisomer A (converted)

Structure (SMILES) | half-life at 5 µM ([1]; Diastereoisomer A) [min] | PANK2−/− CoA (Fold Increase): fold increase in Coenzyme A (CoA) levels relative to controls [2] [Fold Increase] | half-life at 5 µM [3, 6] [min] | half-life at 3 µM [4, 7] [min] | half-life at 3 µM [4, 8] [min] | half-life at 3 µM ([5]; mouse, plasma) [min] | t1/2, Mouse Plasma, Diastereoisomer B ([5]; mouse, plasma, 3 µM) [min] | half-life at 5 µM ([1]; Diastereoisomer B) [min] | half-life at 5 µM [3, 9] [min] | half-life at 3 µM [4, 10] [min] | t1/2, Human Plasma, Diastereoisomer B ([4]; Diastereoisomer B, 3 μM) [h] | half-life at 3 µM [5, 11] [min] | t1/2, Mouse Plasma, Diastereoisomer B ([5]; Diastereoisomer B, 3 μM, 37° C., mouse plasma) [min] | half-life [1, 12] [min] | half-life ([1]; Diastereoisomer B, read-out: t1/2, Human Hepatocytes, Diastereoisomer B (converted)) [min] | half-life at 5 µM [3, 13] [min] | half-life at 5 µM ([3]; Diastereoisomer B, 5 μM, 1 million cells/ml, 37° C., mouse hepatocytes, read-out: t1/2, Mouse Hepatocytes, Diastereoisomer B (converted)) [min]
COC(=O)CCNC(=O)[C@@H]1O[P@@](=O)(OCOC(=O)NCCOC(=O)[C@@H](NC(=O)OCc2ccccc2)C(C)C)OCC1(C)C (single isomer, unassigned) [2-160] | 36.6 | 7.99 | < 15 | – | – | – | – | – | – | – | – | – | – | – | – | – | –
COC(=O)CCNC(=O)[C@@H]1O[P@](=O)(OCOC(=O)NCCOC(=O)[C@@H](NC(=O)OCc2ccccc2)C(C)C)OCC1(C)C (single isomer, unassigned) [2-161] | 25.8 | 71.14 | < 15 | – | – | – | – | – | – | – | – | – | – | – | – | – | –
CC(C)(C)C(=O)OCO[P@@]1(=O)OCC(C)(C)[C@H](C(=O)NCCC(=O)OCCS(C)(=O)=O)O1 (single isomer, unassigned) [Compound No. 78] | 26.4 | 120.6 | < 15 | > 60 | < 9.6 | < 9.6 | <9.6 | 19.8 | < 15 | – | – | – | – | – | – | – | –
COC(=O)CCNC(=O)[C@@H]1O[P@](=O)(OCOC(=O)C(C)(C)C)OCC1(C)C (single isomer, unassigned) [Compound No. 89] | < 15 | 154.1 | < 15 | < 9.6 | – | < 9.6 | – | – | – | – | – | – | – | – | – | – | –
COC(=O)CCNC(=O)[C@@H]1O[P@@](=O)(OCOC(=O)C(C)(C)C)OCC1(C)C (single isomer, unassigned) [Compound No. 90] | < 15 | 286.0 | < 15 | 45.6 | – | < 9.6 | – | – | – | – | – | – | – | – | – | – | –
CC(C)(C)C(=O)OCOP1(=O)OCC(C)(C)[C@H](C(=O)NCCC(=O)OCc2ccncc2)O1 (stereo in doubt) [Compound No. 71, (((2S,4R)-5,5-dimethyl-2-oxido-4-((3-oxo-3-(pyridin-4-ylmethoxy)propyl)carbamoyl)-1,3,2-dioxaphosphinan-2-yl)oxy)methyl pivalate] | < 15 | 39.37 | < 15 | > 60 | < 9.6 | < 9.6 | <9.6 | < 15 | < 15 | – | – | – | – | – | – | – | –
CCC(CC)C(=O)OCOP1(=O)OCC(C)(C)[C@H](C(=O)NCCC(=O)OC)O1 (stereo partly drawn) [Compound No. 67, (((4R)-4-((3-methoxy-3-oxopropyl)carbamoyl)-5,5-dimethyl-2-oxido-1,3,2-dioxaphosphinan-2-yl)oxy)methyl 2-ethylbutanoate] | < 15 | 122.4 | < 15 | > 60 | < 9.6 | < 9.6 | <9.6 | < 15 | < 15 | – | – | – | – | – | – | – | –
COC(=O)CCNC(=O)[C@@H]1OP(=O)(OCOC(C)=O)OCC1(C)C (stereo partly drawn) [Compound No. 68, Methyl 3-((4R)-2-(acetoxymethoxy)-5,5-dimethyl-2-oxido-1,3,2-dioxaphosphinane-4-carboxamido)propanoate] | < 15 | 125.97 | < 15 | – | – | – | – | < 15 | < 15 | – | – | – | – | – | – | – | –
COC(=O)CCNC(=O)[C@@H]1OP(=O)(OCOC(=O)c2ccc(CN3CCCC3)cc2)OCC1(C)C (stereo partly drawn) [Compound No. 76, (((4R)-4-((3-methoxy-3-oxopropyl)carbamoyl)-5,5-dimethyl-2-oxido-1,3,2-dioxaphosphinan-2-yl)oxy)methyl 4-(pyrrolidin-1-ylmethyl)benzoate] | 31.2 | 79.95 | < 15 | < 9.6 | < 9.6 | < 9.6 | <9.6 | < 15 | < 15 | – | – | – | – | – | – | – | –
COC(=O)CCNC(=O)[C@@H]1OP(=O)(N[C@H](C(=O)OC)C(C)C)OCC1(C)C (stereo partly drawn) [compound 1, (2S)-methyl 2-(((4R)-4-((3-methoxy-3-oxopropyl)carbamoyl)-5,5-dimethyl-2-oxido-1,3,2-dioxaphosphinan-2-yl)amino)-3-methylbutanoate] | – | 1.51 | – | – | – | – | – | – | – | > 60 | >1 | < 9.6 | <9.6 | 77.4 | 78.6 | 25.8 | < 15
COC(=O)CCNC(=O)[C@@H]1OP(=O)(N[C@@H](Cc2ccccc2)C(=O)OC(C)(C)C)OCC1(C)C (some centres unmarked) [compound 4] | – | 1.2 | – | – | – | – | – | – | – | > 60 | – | < 9.6 | – | 26.4 | – | 34.8 | –
COC(=O)CCNC(=O)[C@@H]1OP(=O)(N[C@H](C(=O)OCc2ccccc2)C(C)C)OCC1(C)C (stereo partly drawn) [compound 13, benzyl ((4R)-4-((3-methoxy-3-oxopropyl)carbamoyl)-5,5-dimethyl-2-oxido-1,3,2-dioxaphosphinan-2-yl)-L-valinate] | 31.8 | 1 | 28.2 | > 60 | > 60 | < 9.6 | <9.6 | < 15 | 24 | – | – | – | – | – | – | – | –
COC(=O)CCNC(=O)[C@@H]1OP(=O)(N[C@H](C(=O)OC(C)(C)C)C2CCCCC2)OCC1(C)C (stereo partly drawn) [compound 14, methyl 3-((4R)-2-(((S)-2-(tert-butoxy)-1-cyclohexyl-2-oxoethyl)amino)-5,5-dimethyl-2-oxido-1,3,2-dioxaphosphinane-4-carboxamido)propanoate] | 17.4 | 1.59 | < 15 | > 60 | > 60 | < 9.6 | <9.6 | < 15 | < 15 | – | – | – | – | – | – | – | –
COC(=O)[C@H](C)NP1(=O)OCC(C)(C)[C@H](C(=O)NCCC(=O)OCc2cc(C)on2)O1 (stereo partly drawn) [compound 21, (2S)-methyl 2-(((4R)-5,5-dimethyl-4-((3-((5-methylisoxazol-3-yl)methoxy)-3-oxopropyl)carbamoyl)-2-oxido-1,3,2-dioxaphosphinan-2-yl)amino)propanoate] | 70.8 | – | < 15 | – | – | – | – | 40.2 | < 15 | – | – | – | – | – | – | – | –
COC(=O)[C@H](C)N[P@@]1(=O)OCC(C)(C)[C@H](C(=O)NCCC(=O)OCc2cn(C)cn2)O1 [compound 22, methyl ((2R,4R)-5,5-dimethyl-4-((3-((1-methyl-1H-imidazol-4-yl)methoxy)-3-oxopropyl)carbamoyl)-2-oxido-1,3,2-dioxaphosphinan-2-yl)-L-alaninate] | > 240 | – | 37.2 | – | – | – | – | – | – | – | – | – | – | – | – | – | –
